Measured values reported in patent US20050113292A1 (priority 2003, published 2005).
Like-named read-outs stand apart in the source and are kept apart here.

How the values were obtained:
M-tropic (BAL) HIV-1 = settings: for IC50: M-tropic (BAL)
HIV-1 = type: cell-based
[1] = tested on: HIV-1 mediated cell-cell fusion (R8 virus)
R9 HIV-1 virus = type: cell-based
[2] = molecular target: gp41 of T-tropic HIV-1 R8 virus (HIV-1 (R8)); assay: cell-based or functional assay
[3] = mediated cell-cell fusion (R8 virus)

CC[C@H](C)[C@H](NC(=O)[C@H](CC(C)C)NC(=O)[C@H](CO)NC(=O)[C@H](Cc1c[nH]cn1)NC(=O)[C@@H](NC(=O)[C@H](CC(C)C)NC(=O)[C@H](CO)NC(=O)[C@@H](NC(=O)[C@H](Cc1ccc(O)cc1)NC(=O)[C@H](CC(N)=O)NC(=O)[C@H](CC(N)=O)NC(=O)[C@@H](NC(=O)[C@H](CCC(=O)O)NC(=O)[C@H](CCCNC(=N)N)NC(=O)[C@H](CC(=O)O)NC(=O)[C@H](Cc1c[nH]c2ccccc12)NC(=O)[C@H](CCC(=O)O)NC(=O)[C@H](CCSC)NC(=O)[C@@H]1Cc2c([nH]c3ccccc23)C(C(=O)NCCCC[C@H](NC(=O)CCNC(=O)C2N[C@H](C(=O)N[C@@H](CCSC)C(=O)N[C@@H](CCC(=O)O)C(=O)N[C@@H](Cc3c[nH]c4ccccc34)C(=O)N[C@@H](CC(=O)O)C(=O)N[C@@H](CCCNC(=N)N)C(=O)N[C@@H](CCC(=O)O)C(=O)N[C@H](C(=O)N[C@@H](CC(N)=O)C(=O)N[C@@H](CC(N)=O)C(=O)N[C@@H](Cc3ccc(O)cc3)C(=O)N[C@H](C(=O)N[C@@H](CO)C(=O)N[C@@H](CC(C)C)C(=O)N[C@H](C(=O)N[C@@H](Cc3c[nH]cn3)C(=O)N[C@@H](CO)C(=O)N[C@@H](CC(C)C)C(=O)N[C@H](C(=O)N[C@@H](CCC(=O)O)C(=O)N[C@@H](CCC(=O)O)C(=O)N[C@@H](CO)C(=O)N[C@@H](CCC(N)=O)C(=O)N[C@@H](CC(N)=O)C(=O)N[C@@H](CCC(N)=O)C(=O)N[C@@H](CCC(N)=O)C(=O)N[C@@H](CCC(=O)O)C(=O)N[C@@H](CCCCN)C(=O)N[C@@H](CC(N)=O)C(=O)N[C@@H](CCC(=O)O)C(=O)N[C@@H](CCC(N)=O)C(=O)N[C@@H](CCC(=O)O)C(=O)N[C@@H](CC(C)C)C(=O)N[C@@H](CC(C)C)C(=O)O)[C@@H](C)CC)[C@@H](C)CC)[C@@H](C)O)[C@@H](C)CC)Cc3c2[nH]c2ccccc32)C(=O)N[C@@H](CO)C(=O)N[C@@H](CO)C(=O)N[C@@H](C)C(N)=O)N1)[C@@H](C)CC)[C@@H](C)O)[C@@H](C)CC)C(=O)N[C@@H](CCC(=O)O)C(=O)N[C@@H](CCC(=O)O)C(=O)N[C@@H](CO)C(=O)N[C@@H](CCC(N)=O)C(=O)N[C@@H](CC(N)=O)C(=O)N[C@@H](CCC(N)=O)C(=O)N[C@@H](CCC(N)=O)C(=O)N[C@@H](CCC(=O)O)C(=O)N[C@@H](CCCCN)C(=O)N[C@@H](CC(N)=O)C(=O)N[C@@H](CCC(=O)O)C(=O)N[C@@H](CCC(N)=O)C(=O)N[C@@H](CCC(=O)O)C(=O)N[C@@H](CC(C)C)C(=O)N[C@@H](CC(C)C)C(=O)O (stereo partly drawn) [Compound 2α-C34]
fold increase of potency over monomer, BAL virus (M-tropic (BAL) HIV-1): 45 fold | IC50 (M-tropic (BAL) HIV-1): 0.09 nM | fold increase of potency over monomer, R8 virus (T-tropic (R8) HIV-1): 42 fold | Neutralization (%) (HIV-1): <5% | fold increase over monomer, cell-cell fusion [1]: 74 fold | EC50 [1, 3]: 0.47 nM | IC50 [1, 3]: 0.47 nM

CC[C@H](C)[C@H](NC(=O)CNC(=O)[C@H](Cc1c[nH]c2ccccc12)NC(=O)[C@@H](NC(=O)[C@@H](NC(=O)[C@H](CC(C)C)NC(=O)[C@H](CCC(N)=O)NC(=O)[C@H](CC(C)C)NC(=O)[C@H](CC(C)C)NC(=O)[C@H](Cc1c[nH]cn1)NC(=O)[C@H](CCC(N)=O)NC(=O)[C@H](CCC(N)=O)NC(=O)[C@H](C)NC(=O)[C@H](CCC(=O)O)NC(=O)[C@@H](NC(=O)[C@H](C)NC(=O)[C@H](CCCNC(=N)N)NC(=O)[C@H](CC(C)C)NC(=O)[C@H](CC(C)C)NC(=O)[C@H](CC(N)=O)NC(=O)[C@H](CC(N)=O)NC(=O)[C@H](CCC(N)=O)NC(=O)[C@H](CCC(N)=O)NC(=O)[C@H](CCC(N)=O)NC(=O)[C@@H](NC(=O)[C@@H](NC(=O)CNC(=O)[C@H](CO)NC(=O)[C@@H]1CSC(C(=O)NCCCC[C@H](NC(=O)CCNC(=O)C2N[C@H](C(=O)N[C@@H](CO)C(=O)NCC(=O)N[C@H](C(=O)N[C@H](C(=O)N[C@@H](CCC(N)=O)C(=O)N[C@@H](CCC(N)=O)C(=O)N[C@@H](CCC(N)=O)C(=O)N[C@@H](CC(N)=O)C(=O)N[C@@H](CC(N)=O)C(=O)N[C@@H](CC(C)C)C(=O)N[C@@H](CC(C)C)C(=O)N[C@@H](CCCNC(=N)N)C(=O)N[C@@H](C)C(=O)N[C@H](C(=O)N[C@@H](CCC(=O)O)C(=O)N[C@@H](C)C(=O)N[C@@H](CCC(N)=O)C(=O)N[C@@H](CCC(N)=O)C(=O)N[C@@H](Cc3c[nH]cn3)C(=O)N[C@@H](CC(C)C)C(=O)N[C@@H](CC(C)C)C(=O)N[C@@H](CCC(N)=O)C(=O)N[C@@H](CC(C)C)C(=O)N[C@H](C(=O)N[C@H](C(=O)N[C@@H](Cc3c[nH]c4ccccc34)C(=O)NCC(=O)N[C@H](C(=O)N[C@@H](CCCCN)C(=O)N[C@@H](CCC(N)=O)C(=O)N[C@@H](CC(C)C)C(=O)N[C@@H](CCC(N)=O)C(=O)N[C@@H](C)C(=O)N[C@@H](CCCNC(=N)N)C(=O)N[C@H](C(=O)N[C@@H](CC(C)C)C(=O)O)[C@@H](C)CC)[C@@H](C)CC)C(C)C)[C@@H](C)O)[C@@H](C)CC)C(C)C)[C@@H](C)CC)CS2)C(=O)N[C@@H](CCCCNC(=O)CNC(=O)C2N[C@H](C(=O)N[C@@H](CO)C(=O)NCC(=O)N[C@H](C(=O)N[C@H](C(=O)N[C@@H](CCC(N)=O)C(=O)N[C@@H](CCC(N)=O)C(=O)N[C@@H](CCC(N)=O)C(=O)N[C@@H](CC(N)=O)C(=O)N[C@@H](CC(N)=O)C(=O)N[C@@H](CC(C)C)C(=O)N[C@@H](CC(C)C)C(=O)N[C@@H](CCCNC(=N)N)C(=O)N[C@@H](C)C(=O)N[C@H](C(=O)N[C@@H](CCC(=O)O)C(=O)N[C@@H](C)C(=O)N[C@@H](CCC(N)=O)C(=O)N[C@@H](CCC(N)=O)C(=O)N[C@@H](Cc3c[nH]cn3)C(=O)N[C@@H](CC(C)C)C(=O)N[C@@H](CC(C)C)C(=O)N[C@@H](CCC(N)=O)C(=O)N[C@@H](CC(C)C)C(=O)N[C@H](C(=O)N[C@H](C(=O)N[C@@H](Cc3c[nH]c4ccccc34)C(=O)NCC(=O)N[C@H](C(=O)N[C@@H](CCCCN)C(=O)N[C@@H](CCC(N)=O)C(=O)N[C@@H](CC(C)C)C(=O)N[C@@H](CCC(N)=O)C(=O)N[C@@H](C)C(=O)N[C@@H](CCCNC(=N)N)C(=O)N[C@H](C(=O)N[C@@H](CC(C)C)C(=O)O)[C@@H](C)CC)[C@@H](C)CC)C(C)C)[C@@H](C)O)[C@@H](C)CC)C(C)C)[C@@H](C)CC)CS2)C(=O)N[C@@H](CO)C(=O)N[C@@H](CO)C(=O)N[C@@H](C)C(N)=O)N1)[C@@H](C)CC)C(C)C)[C@@H](C)CC)[C@@H](C)O)C(C)C)C(=O)N[C@@H](CCCCN)C(=O)N[C@@H](CCC(N)=O)C(=O)N[C@@H](CC(C)C)C(=O)N[C@@H](CCC(N)=O)C(=O)N[C@@H](C)C(=O)N[C@@H](CCCNC(=N)N)C(=O)N[C@H](C(=O)N[C@@H](CC(C)C)C(=O)O)[C@@H](C)CC (stereo partly drawn) [Compound 3α-N36]
IC50 (M-tropic (BAL) HIV-1): 7.2 nM | IC50 (T-tropic (R8) HIV-1; T-tropic (R8)): 55.4 nM | percentage of inhibition of cell infection (R9 HIV-1 virus; 6 μM): around 10% | percentage of inhibition of cell infection (R9 HIV-1 virus; 200 μM): ~100% | IC50 [1, 3]: 39 nM

N36 (from UniProt P04578 546-581) (peptide)
IC50, HIV-1 mediated cell-cell fusion (syncytium formation), R8 virus [2]: > 1000 nM
